Test results as given in patent US7901893B2, “NPC1L1 (NPC3) and methods of identifying ligands thereof” (Merck Sharp & Dohme Corp., priority 2004, dated 2011).
Entries after “also recorded” stand apart in the source; their conditions may differ. Like-named read-outs stand apart in the source and are kept apart here.

Assays:
[1] = system: brush border membranes from NPC1L1 knockout (−/−) mice; experiment: Binding assay with brush border membranes from NPC1L1 deficient mice; parameters: species or system mouse
Experimental: Brush border membranes vesicles were prepared from intestinal tissues of wild type and NPC1L1 knockout (−/−) mice. 15, 30 and 60 μg protein/assay of brush border membranes vesicles were incubated with 4 nM ^35S-2 in buffer A for 3 hours at 37° C. in the presence and absence of 100 μM EZE-glucuronide.
For FIG. 14A, enterocyte brush border membranes were prepared from NPC1L1 deficient male mice and same sex wild-type littermates, and tested for binding of 1. […] Membranes from wild type mice are on the left and from NPC1L1 deficient mice on the right.

[2] = system: membrane preparations from cells expressing NPC1L1; experiment: Preliminary binding studies with HEK-293 membrane preparations
Experimental: Transient expression of NPC1L1. Plasmid pCR3.1 expressing rat NPC1L1 (Genbank AY437867) or human NPC1L1 (Genbank AY437865) were prepared using standard molecular biology protocols. HEK-293 cells (ATCC) were seeded at 10×10^6 cells per T-225 flask (Corning) in DMEM containing 10% fetal calf serum, 4.5 g/L D-glucose and L-glutamine, 18 hours prior to transfection. They were transiently transfected with 25 μg of DNA using Fugene transfection reagent (Roche Biochemical) at a ratio of 6:1 Fugene:DNA. Following transfection, the cells were incubated at 37° C. and 5% CO2 for 48 hours, and then harvested using PBS based cell dissociation buffer (Gibco), pelleted at 500×g, snap frozen on dry ice, and stored at −80° C.
Membrane preparation from HEK-293 cells. Membranes were prepared by resuspending the frozen cell pellets in ten volumes of 20 mM HEPES/Tris buffer at pH 7.40 containing 8% sucrose, and sonicating the suspensions with a probe sonicator on ice until most of the cells were lysed. […]
Cell lysates from HEK-293 cells expressing NPC1L1 (Lanes 1 and 3 of Panel 1 FIG. 13) and wild-type cells (Lanes 2 and 4 of Panel 1 FIG. 13) were analyzed by gel electrophoresis and Western blot with an anti-NPC1L1 antibody A1801. […]

[3] = system: human, mouse or rat NPC1L1-CHO overexpressing membranes; experiment: SPA assay; assay type: binding; conditions: 0.1 nM ligand
Experimental: For each well of a 96 well plate, a reaction mixture of 10 μg human, mouse or rat NPC1L1-CHO overexpressing membranes (Biosignal) and 200 μg/well YSi-WGA-SPA beads (Amersham) in 100 μl is prepared in NPC1L1 assay buffer (25 mM HEPES, pH 7.8, 2 mM CaCl2, 1 mM MgCl2, 125 mM NaCl, 0.1% BSA). A 0.4 nM stock of ligand-[^125I]-ezetimibe- is prepared in the NPC1L1 assay buffer. The above solutions are added to a 96-well assay plate as follows: 50 μl NPC1L1 assay buffer, 100 μl of reaction mixture, 50 μl of ligand stock (final ligand concentration is 0.1 nM). The assay plates are shaken for 5 minutes on a plate shaker, then incubated for 8 hours before cpm/well are determined in Microbeta Trilux counter (PerkinElmer).

[4] = biological target: T1, CHO cells expressing SR-B1 (Mus musculus, UniProt Q61009); experiment: Cholesterol uptake assay (Example 4); assay type: cell-based; conditions: 10 μM ezetimibe
T1 construct: expressed in transfected cells; host or cells: CHO cells
T1 sequence (Q61009 1-509): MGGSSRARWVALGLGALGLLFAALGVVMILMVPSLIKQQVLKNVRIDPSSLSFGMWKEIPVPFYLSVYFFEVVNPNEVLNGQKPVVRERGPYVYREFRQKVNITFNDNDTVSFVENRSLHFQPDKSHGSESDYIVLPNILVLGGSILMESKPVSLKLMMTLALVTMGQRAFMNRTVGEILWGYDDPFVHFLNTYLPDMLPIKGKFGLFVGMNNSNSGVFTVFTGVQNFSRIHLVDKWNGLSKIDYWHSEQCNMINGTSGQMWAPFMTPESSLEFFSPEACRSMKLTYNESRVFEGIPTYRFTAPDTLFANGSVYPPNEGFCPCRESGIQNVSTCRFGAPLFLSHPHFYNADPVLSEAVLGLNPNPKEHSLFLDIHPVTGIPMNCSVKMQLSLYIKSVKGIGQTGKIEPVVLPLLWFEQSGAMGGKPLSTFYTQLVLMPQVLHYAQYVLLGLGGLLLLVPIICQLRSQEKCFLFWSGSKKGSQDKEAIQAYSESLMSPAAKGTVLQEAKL
Experimental: CHO cells expressing either SR-B1 or three different clones of rat NPC1L1 or one clone of mouse NPC1L1 were starved overnight in cholesterol free media then dosed with [3H]-cholesterol in a mixed synthetic micelle emulsion for 4 min, 8 min, 12 min or 24 m in the absence or presence of 10 µM ezetimibe. The cells were harvested and the lipids were organically extracted. The extracted lipids were spotted on thin-layer chromatography (TLC) plates and resolved within an organic vapor phase. The free cholesterol bands for each assay were isolated and counted in a scintillation counter.

cholesterol absorption [5] = conditions: mouse; cited from earlier work
cholesterol absorption [6] = conditions: cited from earlier work

Question: For O=C(O)[C@H]1O[C@@H](Oc2ccc([C@@H]3[C@@H](CC[C@H](O)c4ccc(F)cc4)C(=O)N3c3ccc(F)cc3)cc2)[C@H](O)[C@@H](O)[C@@H]1O [Compound 1, Ezetimibe glucuronide], which “specific binding to membranes from NPC1L1 deficient mice” value ([1]; 500 nM 1, 0.03% taurocholate, 0.05% digitonin) is on record?
Answer: The value was “no detectable specific binding affinity; also recorded: virtually undetectable”.

Question: And the “binding to membrane preparations from cells expressing NPC1L1” value [2]?
Answer: Its value is “specific binding”.

Question: What about the “binding to membranes from mock transfected cells” value [2] of the same molecule?
Answer: Its value is “no specific binding”.

Question: For CS(=O)(=O)NCC#Cc1ccc(N2C(=O)[C@H](CC[C@H](O)c3ccc(F)cc3)[C@H]2c2ccc(O[C@@H]3O[C@H](C(=O)O)[C@@H](O)[C@H](O)[C@H]3O)cc2)cc1 [Compound 2, 4-[(2S,3R)-3-[(3S)-3 (4-fluorophenyl)-3-hydroxypropyl]-1-(4-{3-[(methylsulfonyl)amino]prop-1-yn-1-yl}phenyl)-4-oxoazetidin-2-yl]phenyl β-D-glucopyranosiduronic acid], which “binding to membranes from NPC1L1 deficient mice” value ([1]; 4 nM ^35S-2) is on record?
Answer: Its value is “no detectable binding”.

Question: For O=C1[C@H](CC[C@H](O)c2ccc(F)cc2)[C@@H](c2ccc(O)cc2)N1c1ccc(F)cc1 [ezetimibe], which “binding to cell membranes expressing human, mouse or rat NPC1L1” value [3] is on record?
Answer: The value was “binds”.

Question: What about the “[^3H]-cholesterol uptake” value [4] of the same molecule?
Answer: Its value is “inhibited”.

Question: What about the “potency (ED50) in vivo” value (cholesterol absorption [5]) of the same molecule?
Answer: The value was 0.5 mpk.

Question: What about the “ED50” value (cholesterol absorption [6]; monkey) of the same molecule?
Answer: The value was 0.5 µg/kg.

Question: What about the “potency (ED50) in vivo” value (cholesterol absorption [6]; rhesus) of the same molecule?
Answer: The value was 0.0005 mpk.
